Results as given in EPA's ToxRefDB 2.

Columns and labels:
[1] = tested on: dog; settings: Chronic toxicity, beagle, Oral, Capsule, dose end: 52 week, group: systemic
[2] = tested on: mouse; settings: Carcinogenicity, cd1, Oral, Feed, dose end: 80 week, group: systemic
[3] = tested on: rabbit; settings: Prenatal developmental toxicity study, other, Oral, Gavage/Intubation, dose end: 19 GD
[4] = tested on: dog; settings: Chronic toxicity; beagle; Oral; Capsule; dose end: 26 week; group: systemic; systemic / in life observation / clinical signs / defecation (diarrhea) + systemic / in life observation / clinical signs / mucoid stools + …
[5] = tested on: rat; settings: Subchronic oral toxicity in rodents, sprague dawley, Feed, dose end: 91 day, group: systemic
[6] = tested on: rabbit; settings: Prenatal developmental toxicity study, new zealand white, Oral, Gavage/Intubation, dose end: 18 GD
[7] = tested on: rat; settings: Chronic toxicity; other; Oral; Feed; dose end: 24 month; group: systemic; systemic / organ weight / testes / nos + systemic / pathology gross / testes / reduced size + systemic / pathology microscopic / testes / …
[8] = tested on: dog; settings: Subchronic oral toxicity in nonrodent, beagle, Capsule, dose end: 91 day, group: systemic
[9] = tested on: rat; settings: Multigenerational reproductive toxicity study, sprague dawley, Oral, Feed, dose end: 2 generation
[10] = tested on: mouse; settings: Combined chronic toxicity/carcinogenicity; cd1; Oral; [Not Specified]; dose end: 18 month; group: systemic; systemic / pathology microscopic / lung / adenoma + systemic / pathology microscopic / lung / carcinoma
[11] = tested on: rat; settings: Prenatal developmental toxicity study, sprague dawley, Oral, Gavage/Intubation, dose end: 15 GD
[12] = systemic / in life observation / body weight / body weight gain
[13] = systemic / in life observation / body weight / body weight gain + systemic / in life observation / body weight / body weight + systemic / in…
[14] = systemic / in life observation / body weight / body weight gain + systemic / in life observation / body weight / body weight + systemic / …
[15] = group: developmental, developmental / developmental malformation / bone / [other]
[16] = group: maternal, reproductive / reproductive performance / resorptions / resorptions + systemic / in life observation / clinical signs / defecation (diarrhea…
[17] = systemic / organ weight / testes / nos + systemic / in life observation / body weight / body weight + systemic / in life observation / food …
[18] = group: developmental, systemic / in life observation / body weight / fetal weight
[19] = group: maternal, systemic / in life observation / clinical signs / anogenital staining + systemic / in life observation / clinical signs / defecation + …
[20] = systemic / clinical chemistry / alanine aminotransferase (alt/sgpt) / alanine aminotransferase (alt/sgpt) + systemic / in life observation…
[21] = systemic / in life observation / body weight / body weight
[22] = group: parental, systemic / pathology gross / testes / degeneration + systemic / pathology microscopic / testes / aspermia + systemic / pathology microscopic…
[23] = group: reproductive, reproductive / reproductive performance / fertility / fertility + reproductive / reproductive performance / mating / mating
[24] = group: developmental, developmental / developmental malformation / bone / incomplete ossification + developmental / developmental malformation / general / [other…
[25] = group: maternal, systemic / in life observation / body weight / body weight + systemic / in life observation / clinical signs / fat, discoloration + systemic…

Compound COS(=O)(=O)[O-].Cn1c(-c2ccccc2)cc(-c2ccccc2)[n+]1C [Difenzoquat metilsulfate] has an LOAEL [1, 12] of 30 mg/kg/day, an LEL [1, 13] of 30 mg/kg/day and an NEL [1, 13] of 20 mg/kg/day. It also gave an NOAEL [1, 13] of 20 mg/kg/day, an LEL [2, 12] of 69.4 mg/kg/day and an LOAEL [2, 12] of 69.4 mg/kg/day. It also gave an NEL [2, 14] of 26.9 mg/kg/day, an NOAEL [2, 14] of 26.9 mg/kg/day and an LEL [3, 15] of 250 mg/kg/day. For the same compound, the LOAEL [3, 15] was 250 mg/kg/day, the NEL [3, 15] was 100 mg/kg/day and the NOAEL [3, 15] was 100 mg/kg/day. For the same compound, the LEL [3, 16] was 250 mg/kg/day, the LOAEL [3, 16] was 250 mg/kg/day and the NEL [3, 16] was 100 mg/kg/day. The NOAEL [3, 16] was 100 mg/kg/day.
Work on CC1(C)CN=C(NN=C(C=Cc2ccc(C(F)(F)F)cc2)C=Cc2ccc(C(F)(F)F)cc2)NC1 [Hydramethylnon] yielded an LEL [4] of 3 mg/kg/day, an LOAEL [4] of 3 mg/kg/day and an NEL [4] of 1 mg/kg/day. It also gave an NOAEL [4] of 1 mg/kg/day, an LEL ([5]; systemic / organ weight / testes / nos) of 2.5 mg/kg/day and an NEL [5, 17] of 1.25 mg/kg/day. It also gave an NOAEL [5, 17] of 2.5 mg/kg/day, an LOAEL ([5]; systemic / organ weight / testes / nos + systemic / pathology microscopic / testes / atrophy) of 5 mg/kg/day and an LEL [6, 18] of 10 mg/kg/day. It also gave an LOAEL [6, 18] of 10 mg/kg/day, an NEL [6, 18] of 5 mg/kg/day and an NOAEL [6, 18] of 5 mg/kg/day. The LEL [6, 19] was 10 mg/kg/day, the LOAEL [6, 19] was 10 mg/kg/day and the NEL [6, 19] was 5 mg/kg/day. For the same compound, the NOAEL [6, 19] was 5 mg/kg/day, the LEL [7] was 4.9 mg/kg/day and the LOAEL [7] was 4.9 mg/kg/day. It also gave an NEL [7] of 2.4 mg/kg/day, an NOAEL [7] of 2.4 mg/kg/day and an LOAEL [8, 20] of 6 mg/kg/day. For the same compound, the NOAEL [8, 20] was 3 mg/kg/day, the LEL [8, 21] was 3 mg/kg/day and the NEL [8, 21] was less than 3 mg/kg/day. For the same compound, the LEL [9, 22] was 3.32 mg/kg/day, the LOAEL [9, 22] was 3.32 mg/kg/day and the NEL [9, 22] was 1.66 mg/kg/day. For the same compound, the NOAEL [9, 22] was 1.66 mg/kg/day, the LEL [9, 23] was 5.07 mg/kg/day and the LOAEL [9, 23] was greater than 5.07 mg/kg/day. For the same compound, the NEL [9, 23] was 3.32 mg/kg/day, the NOAEL [9, 23] was no less than 5.07 mg/kg/day and the LEL [10] was 4.45 mg/kg/day. The LOAEL [10] was 4.45 mg/kg/day, the NEL [10] was less than 4.45 mg/kg/day and the NOAEL [10] was less than 4.45 mg/kg/day. For the same compound, the LEL [11, 24] was 30 mg/kg/day, the LOAEL [11, 24] was 30 mg/kg/day and the NEL [11, 24] was 10 mg/kg/day. It also gave an NOAEL [11, 24] of 10 mg/kg/day, an LEL ([11]; group: maternal, systemic / in life observation / body weight / body weight + systemic / in life observation / clinical signs / fat, discoloration) of 10 mg/kg/day and an LOAEL [11, 25] of 30 mg/kg/day. For the same compound, the NEL [11, 25] was 3 mg/kg/day and the NOAEL [11, 25] was 10 mg/kg/day.
